Data on four substances can be found in patent publication US10525220B2, “Droplet delivery device for delivery of fluids to the pulmonary system and methods of use” (PNEUMA RESPIRATORY, INC., priority 2016, dated 2020).

“And” between values parts separate entries of the source, which are not always exact repeats. Equal values may be shown once.

Holding throughout (assay type): physicochemical
Data set [1] can be described thus: Anderson Cascade Impactor testing of Albuterol sulfate aerosol from droplet delivery device (Example B).
Description: The study was designed to evaluate device performance of a single Pneuma™ inhaler. A series of three (3) individual tests were conducted with a new disposable drug cartridge for each test. The testing platform utilizes an eight-stage nonviable Anderson Cascade Impactor (Thermo Fisher Scientific; Waltham, Mass.) equipped with a calibrated AALBORG model GFM47 mass flow meter (AALBORG Instruments and Controls; Orangeburg, N.Y.) for flow rate measurement.
At the conclusion of each test, the mouthpiece was rinsed with mobile phase and collected for HPLC analysis to determine the mass fraction of non-respirable aerosolized drug captured in the mouthpiece via inertial filtering. Following each test, impactor stage samples were extracted and recovered in solvent and analyzed for the active pharmaceutical ingredient (API) using a Dionex Ultimate 3000 nano-HPLC with UV detection (Thermo Scientific, Sunnyvale, Calif.).
The cascade impactor testing procedure involved fitting the mouthpiece into the Impactor USP throat with a mouthpiece connection seal. The vacuum pump supplying sample air flow to the cascade impactor was turned on and the pump control valves adjusted to supply 28.3 L/min total flow through the impactor and inhaler body during aerosol tests.
The device was connected to the impactor USB throat, turned on, and actuated ten (10) times for each test. At the conclusion of the test period, the device, impactor, and dilution air sources were turned off. The i mouthpiece was rinsed in order to extract drug, and all stages of the cascade impactor were rinsed with a quantity of appropriate solvent (HPLC mobile phase). Extracted samples were placed in labeled and sterile HPLC vials, capped, and analyzed for drug content via HPLC with UV detection. The mouthpiece was extracted of residual drug and analyzed for drug content via HPLC to measure mouthpiece drug deposition in relation to the total collected on the impactor stages.
All system flow rates and impactor sample flows were monitored throughout each test period. Following each test, the impactor slides were placed in labeled sterile Petri dishes, and impactor stages were extracted of drug using 2 ml of mobile phase applied with a calibrated micropipette. All extracted samples from the mouthpiece and impactor were placed in labeled sterile amber HPLC sample vials, and stored refrigerated at approximately 2° C. until HPLC analysis.
Impactor collection stages for all tests were rinsed with DI water and ethanol, and air dried prior to each inhaler test trial to avoid contamination. A new inhaler drug cartridge was used for each of the three individual tests.
All drug content analysis was performed using a Dionex Ultimate 3000 nano-HPLC equipped with a Dionex UVD-3000 multi-wavelength UVNIS Detector using a micro flow cell (75 um×10 mm path length, total analytical volume 44.2 nl). […] Total HPLC run time was 6 minutes per sample with approximately 5 minutes flush between each sample. Sample injection was performed with a 1 μl sample loop in full loop injection mode.
Buffer formulation contains reverseosmosis filtered deionized water with 1.13 gr of sodium 1-hexanesulfonate (Alfa Aesar) in 1200 ml of water, with 2 ml glacial acetic acid (Acros Organics) added. The mobile phase solution was mixed and filtered through a 0.45 um filter membrane. The final mobile phase is a 60:40 dilution of Buffer:MEOH.
Mean and standard deviation were calculated for all triplicate trial sets for each component of: inhaler drug fill, total delivered dose, course particle dose, course particle fraction, respirable particle dose, respirable particle fraction, fine particle dose, fine particle fraction, aerosol MMAD and GSD. The number of trials provided for 95% confidence levels for all data sets.
Data set [2] is described as follows: Size exclusion chromatography stability study after aerosol generation with test device. An excerpt: Alternately, to determine the stability of active agent after droplet generation, the generated stream of droplets including the active agent may be collected and […] may be employed to monitor for any changes in large molecule aggregation and protein fragment content. Soluble protein aggregates and protein fragment content may be calculated by comparing respective peak area under the SEC-HPLC curve of dispensed protein solutions with controls (solutions remaining in the device reservoir). Drug solutions for testing include Enbrel, (ENBREL® single-use prefilled syringes in 25 mg (0.51 mL of a 50 mg/mL solution of etanercept), and insulin, (Humalog, 200 units/ml, 3 ml […] is performed with a YarraTM 3 um SEC-2000 LC column 300×7.8 mm, SecurityGuard cartridge kit and SecurityGuard cartridges GFC-2000, 4×3 mm ID. Fifty microliters of Enbrel from the syringe (ENBREL® single-use prefilled syringes in 25 mg/0.51 mL of a 50 mg/mL solution of etanercept) is diluted (4:1) (4 parts, 200 mcl of the mobile phase buffer solution to 1 part, 50 mcl Enbrel from syringe). Fifty microliter of the diluted Enbrel is injected and separation was performed at a flow rate of 1.0 ml/min. The mobile phase buffer system included a PHOS. BUFF. SALINE. […] UV detection is performed at 280 nm. […] Aerosol collection and SEC is performed in a similar fashion as for the Enbrel analysis and aerosol collection. […] Fifty microliters of the collected aerosol spray is injected onto the SEC column for analysis, while 50 mcl of the […] insulin solution is injected onto the SEC column for control samples.

The nature of data set [3]: Gravimetric analysis of delivered dose per actuation. The settings on record: for solution mass per dose (actuation), average of five doses: ampule weighed before and after dosing. On the procedure:
Gravimetric analysis was performed by weighing the Enbrel solution filled ampule before and after dosing. The average of five doses (actuations) were analyzed with an average of 4.25 mg+/−0.15 mg. The total delivered dose of Enbrel per actuation is therefore […] per actuation.
Gravimetric analysis was performed by weighing the Insulin solution filled ampule before and after dosing. The average of five doses (actuations) were analyzed with an average of 5.01 mg+/−0.53 mg. The total delivered dose of Insulin per actuation is therefore 34.8 mcg per actuation.

The nature of data set [4]: Gel electrophoresis stability of active agent after droplet generation. An excerpt: To determine the stability of active agent after droplet generation, the generated stream of droplets including the active agent is collected and the molecular weight of the active agent is verified using gel electrophoresis.
Where [5] appears, read: Albuterol 0.5%, 28.3 lpm, 10 actuations.
The mark [6] stands for this setting: Albuterol 0.5%, 28.3 lpm, N = 30.
Setting [7] is: Albuterol 0.5%, Anderson Cascade, 28.3 lpm, 10 actuations.
[8] abbreviates: Pre-separator, cut diam. 10 μm, Albuterol 0.5%, 28.3 lpm, 10 actuations.
The mark [9] stands for this setting: Enbrel aerosolized, average of S1 and S2.

With Albuterol sulfate, the “Coarse Particles (>4.7 um)” value in data set [1] (setting [5]) is 203.7 µg. For the same substance, the “Coarse Particules Fraction (>4.7 um)” value in data set [1] (setting [5]) was 22.7%. For the same substance, in data set [1] (setting [5]), the “Fine Particles (<0.4 um)” value stood at 31.0 µg. Moreover, the “Fine Particule Fraction (<0.4 um)” value in data set [1] (setting [5]) is recorded as 3.5%. Moreover, the “Mouthpiece Losses” value in data set [1] (setting [5]) was 12.2%; in data set [1] (setting [7]) it was 109.4 µg. The “Respirable Dose (0.4-4.7 um)” value in data set [1] (setting [5]) was 621.9 µg. Besides, the “Respirable Fraction (0.4-4.7 um)” value in data set [1] (setting [5]) stood at 69.3%. Also, the “Geometric StdDev (GSD)” value in data set [1] (setting [6]) was 1.96. This substance also registered an MMAD in data set [1] (setting [6]) of 1.93 um. Further, the “droplets of an average diameter of less than about 5 μm” value in data set [1] (setting [7]) is “over 75%”. Besides, the “droplets with an average diameter of less than about 4 μm” value in data set [1] (setting [7]) was “over 70%”. The “Cum. % <” value in data set [1] (FILTER stage) is 0.00%; in data set [1] (setting [8]), 100.00%; in data set [1] (stage 0, cut diam. 9 μm) it was 88.95%; in data set [1] (stage 1, cut diam. 5.8 μm), 76.22%; in data set [1] (stage 2, cut diam. 4.7 μm), 71.05%; in data set [1] (stage 3, cut diam. 3.3 μm), 64.29%. Besides, the “Cum. % <” value amounted to 52.89% in data set [1] (stage 4, cut diam. 2.1 μm); 21.05% in data set [1] (stage 5, cut diam. 1.1 μm); 8.47% in data set [1] (stage 6, cut diam. 0.7 μm). Further, the “Cum. % >” value in data set [1] (FILTER stage) amounted to 100.00%; in data set [1] (setting [8]), 0.00%; in data set [1] (stage 1, cut diam. 5.8 μm) it was 23.78%; in data set [1] (stage 2, cut diam. 4.7 μm), 28.95%; in data set [1] (stage 3, cut diam. 3.3 μm), 35.71%; in data set [1] (stage 4, cut diam. 2.1 μm) it was 47.11%. The “Cum. % >” value in data set [1] (stage 5, cut diam. 1.1 μm) is 78.95%; in data set [1] (stage 6, cut diam. 0.7 μm), 91.53%; in data set [1] (stage 7, cut diam. 0.4 μm), 96.38%.

As for “Insulin: insulin, Humalog, 200 units/ml, 3 ml kwikpens”, in data set [2] (Insulin 200 U/ml, aerosolized), the “Peak Area %, Peak 1” value was 27.881% and 28.721%; the “Peak Area %, Peak 2” value is 69.780% and 67.807%; the “Peak Area %, Peak 3” value was 2.184% and 2.797%. Also, in data set [2] (Insulin 200 U/ml, control), the “Peak Area %, Peak 2” value amounted to 69.630% and the “Peak Area %, Peak 3” value is 0%. Besides, in data set [2] (Insulin aerosolized, average of S1 and S2), the “Peak 3, Avg.” value was found to be 2.4905. Further, in data set [2] (Insulin from Kwikpen 200 U/ml, control), the “Peak Area %, Peak 1” value came to 29.926%. Further, in data set [2] (Insulin, test device), the “ejected dose forming a fragment which elutes at ~25 minutes” value is given as 2.5% and the “ejected dose structurally unchanged” value came out at 97.5%. Moreover, in data set [3], the “total delivered dose per actuation” value worked out at 34.8 mcg per actuation and the “solution mass per dose (actuation), average of five doses” value is on record as 5.01 mg.

For the substance adalimumab, the “change in electrophoretic mobility (molecular weight) of post-aerosol active agent vs control” value in data set [4] is reported as “negligible change”.

With etanercept [Enbrel], in data set [2] (Enbrel 10 mg/ml, aerosolized), the “Peak Area %, Peak 2” value is 90.789% and 92.112%; the “Peak Area %, Peak 3” value is 0.424% and 0.361%; the “Peak Area %, Peak 4” value is 0.357% and 0.352%; the “Peak Area %, Peak 5” value was 5.130% and 3.428% and 5.123%. Besides, the “Peak Area %, Peak 1” value in data set [2] (Enbrel 10 mg/ml, aerosolized with test device) was 2.796% and 3.476%. In data set [2] (Enbrel 10 mg/ml, control), the “Peak Area %, Peak 2” value was 96.676% and 95.909%; the “Peak Area %, Peak 3” value was 0.373% and 0.351%; the “Peak Area %, Peak 4” value amounted to 0%; the “Peak Area %, Peak 5” value came to 0%. Further, in data set [2] (setting [9]), the “Peak 4, Avg.” value is recorded as 0.3545 and the “Peak 5, Avg.” value amounted to 4.2755. Also, the “Peak Area %, Peak 1” value in data set [2] (Enbrel diluted 4:1 (10 mg/ml), control) is 2.428% and 3.041%. For the same substance, in data set [2] (Enbrel, test device), the “dose forming molecular fragments with elution times of 13 and 25 minutes” value came out at 4.6%; the “structurally unchanged after delivering an aerosol dose” value was found to be 95.4%. Moreover, the “change in electrophoretic mobility (molecular weight) of post-aerosol active agent vs control” value in data set [4] is reported as “negligible change”. Further, in data set [3], the “total delivered dose per actuation” value came out at 42.5 mcg per actuation and the “solution mass per dose (actuation), average of five doses” value is listed as 4.25 mg.
